Literature values as cited in patent US20140038836A1, “Novel Pharmacogene Single Nucleotide Polymorphisms and Methods of Detecting Same” (priority 2012, published 2014).
Read-outs that look alike come from different tables or passages of the source. Blank lines part the entries; values can stand above or below the molecule they belong to.

How the values were obtained:
[1] = biological target: T1, ADRA2A (alpha2A subtype alpha-2-adrenergic receptor) (Homo sapiens, UniProt P08913); details: for rank order for antagonists: antagonists of the alpha2A receptor; for rank order of potency for agonists: agonists of the alpha2A receptor
T1 sequence (P08913 1-465): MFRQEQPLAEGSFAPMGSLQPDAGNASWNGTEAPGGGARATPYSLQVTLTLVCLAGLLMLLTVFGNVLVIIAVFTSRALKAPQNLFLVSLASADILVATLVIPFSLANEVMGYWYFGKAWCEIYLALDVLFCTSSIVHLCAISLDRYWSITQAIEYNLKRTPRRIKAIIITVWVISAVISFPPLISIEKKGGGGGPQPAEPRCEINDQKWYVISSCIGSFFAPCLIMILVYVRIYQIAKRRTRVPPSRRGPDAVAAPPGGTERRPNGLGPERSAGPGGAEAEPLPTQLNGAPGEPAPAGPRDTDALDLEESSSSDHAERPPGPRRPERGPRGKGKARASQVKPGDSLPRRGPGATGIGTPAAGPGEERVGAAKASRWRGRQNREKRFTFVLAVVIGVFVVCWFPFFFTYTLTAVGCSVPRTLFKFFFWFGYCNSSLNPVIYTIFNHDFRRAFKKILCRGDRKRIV

[2] = system: P-gp
[3] = system: psychotic Caucasian patients; details: 3435CC or 2677GG genotypes versus heterozygous or TT carriers
[4] = homozygote ABCB1 3435TT carriers
[5] = system: patients of Asian ethnicity with Major Depressive Disorder; details: carriers of 3435TT (rs1045642) genotype, p=0.001
[6] = system: Caucasian patients with major depression; details: ABCB1 3435TT allele; P=0.042, 95% CI 1.01-1.86
[7] = system: patients with schizophrenia; details: (T) allele of rs3813929
[8] = system: Japanese major depression sample; details: 3435TT genotype (p=0.0008), haplotype block 3435C-2677G-1236T, 6 weeks
[9] = system: schizophrenic Chinese patients from Shanghai; details: 230-bp allele of (GT)n repeat or 230-bp/C-270/rs6265G haplotype versus other alleles or haplotypes
[10] = system: patients diagnosed with generalized anxiety disorder; details: carriers of HTR2A rs7997012 G-allele

SMILES: C=CCc1ccccc1OCC(O)CNC(C)C (stereo not shown) [alprenolol]
rank order for antagonists [1]: yohimbine>phentolamine=mianserine>chlorpromazine=spiperone=prazosin>propanolol>alprenolol=pindolol

P-gp substrate property [2]: substrates of P-gp
SMILES: CN(C)CCC=C1c2ccccc2CCc2ccccc21 [amitriptyline]

SMILES: CN(C)CCCN1c2ccccc2Sc2ccc(Cl)cc21 [chlorpromazine]
rank order for antagonists [1]: yohimbine>phentolamine=mianserine>chlorpromazine=spiperone=prazosin>propanolol>alprenolol=pindolol

P-gp substrate property [2]: substrates of P-gp
SMILES: CN(C)CCCC1(c2ccc(F)cc2)OCc2cc(C#N)ccc21 (stereo not shown) [citalopram]

SMILES: Clc1cccc(Cl)c1N=C1NCCN1 [clonidine]
rank order of potency for agonists [1]: oxymetazoline>clonidine>epinephrine>norepinephrine>phenylephrine>dopamine>p-synephrine>p-tyramine>serotonin=p-octopamine

dose-normalized clozapine levels [3]: significantly lower
SMILES: CN1CCN(C2=Nc3cc(Cl)ccc3Nc3ccccc32)CC1 [clozapine]

digoxin plasma levels after oral administration [4]: increased
SMILES: C[C@H]1O[C@@H](O[C@H]2[C@@H](O)C[C@H](O[C@H]3[C@@H](O)C[C@H](O[C@H]4CC[C@@]5(C)[C@H](CC[C@@H]6[C@@H]5C[C@@H](O)[C@]5(C)[C@@H](C7=CC(=O)OC7)CC[C@]65O)C4)O[C@@H]3C)O[C@@H]2C)C[C@H](O)[C@@H]1O [digoxin]

SMILES: CNC[C@H](O)c1ccc(O)c(O)c1 [epinephrine]
rank order of potency for agonists [1]: oxymetazoline>clonidine>epinephrine>norepinephrine>phenylephrine>dopamine>p-synephrine>p-tyramine>serotonin=p-octopamine

SMILES: CN(C)CCC[C@@]1(c2ccc(F)cc2)OCc2cc(C#N)ccc21 [escitalopram]
remission on the antidepressant [5]: slower remission

SMILES: CN1CCN2c3ccccc3Cc3ccccc3C2C1 (stereo not shown) [mianserine]
rank order for antagonists [1]: yohimbine>phentolamine=mianserine>chlorpromazine=spiperone=prazosin>propanolol>alprenolol=pindolol

P-gp substrate property [2]: not substrates of P-gp
SMILES: CN1CCN2c3ncccc3Cc3ccccc3C2C1 (stereo not shown) [mirtazapine]

SMILES: NC[C@H](O)c1ccc(O)c(O)c1 [norepinephrine]
rank order of potency for agonists [1]: oxymetazoline>clonidine>epinephrine>norepinephrine>phenylephrine>dopamine>p-synephrine>p-tyramine>serotonin=p-octopamine

SMILES: CNCCC=C1c2ccccc2CCc2ccccc21 [nortriptyline]
OR for nortriptyline-induced postural hypotension [6]: 1.37

SMILES: Cc1cc2c(s1)Nc1ccccc1N=C2N1CCN(C)CC1 [olanzapine]
effect on weight gain [7]: protective effect against weight-gain

SMILES: Cc1cc(C(C)(C)C)c(O)c(C)c1CC1=NCCN1 [oxymetazoline]
rank order of potency for agonists [1]: oxymetazoline>clonidine>epinephrine>norepinephrine>phenylephrine>dopamine>p-synephrine>p-tyramine>serotonin=p-octopamine

SMILES: NCC(O)c1ccc(O)cc1 (stereo not shown) [p-octopamine]
rank order of potency for agonists [1]: oxymetazoline>clonidine>epinephrine>norepinephrine>phenylephrine>dopamine>p-synephrine>p-tyramine>serotonin=p-octopamine

SMILES: CNCC(O)c1ccc(O)cc1 (stereo not shown) [p-synephrine]
rank order of potency for agonists [1]: oxymetazoline>clonidine>epinephrine>norepinephrine>phenylephrine>dopamine>p-synephrine>p-tyramine>serotonin=p-octopamine

SMILES: NCCc1ccc(O)cc1 [p-tyramine]
rank order of potency for agonists [1]: oxymetazoline>clonidine>epinephrine>norepinephrine>phenylephrine>dopamine>p-synephrine>p-tyramine>serotonin=p-octopamine

P-gp substrate property [2]: substrates of P-gp
SMILES: Fc1ccc([C@@H]2CCNC[C@H]2COc2ccc3c(c2)OCO3)cc1 [paroxetine]
response to paroxetine [8]: poor response

SMILES: Cc1ccc(N(CC2=NCCN2)c2cccc(O)c2)cc1 [phentolamine]
rank order for antagonists [1]: yohimbine>phentolamine=mianserine>chlorpromazine=spiperone=prazosin>propanolol>alprenolol=pindolol

SMILES: CC(C)NCC(O)COc1cccc2[nH]ccc12 (stereo not shown) [pindolol]
rank order for antagonists [1]: yohimbine>phentolamine=mianserine>chlorpromazine=spiperone=prazosin>propanolol>alprenolol=pindolol

SMILES: Cc1nc2n(c(=O)c1CCN1CCC(c3noc4cc(F)ccc34)CC1)CCCC2 [risperidone]
response to risperidone [9]: better response | AUC of risperidone (3435TT versus 3435CC subjects who were CYP2D6*10/*10, P=0.001): higher | metabolic ratios of risperidone (3435TT versus 3435CC with CYP2D6*10/*10, P=0.006): higher | AUC of risperidone (between ABCB1 3435C>T genotypes, healthy subjects (n=72), 2 mg): no significant differences

SMILES: NCCc1c[nH]c2ccc(O)cc12 [serotonin]
rank order of potency for agonists [1]: oxymetazoline>clonidine>epinephrine>norepinephrine>phenylephrine>dopamine>p-synephrine>p-tyramine>serotonin=p-octopamine

SMILES: O=C(CCCN1CCC2(CC1)C(=O)NCN2c1ccccc1)c1ccc(F)cc1 [spiperone]
rank order for antagonists [1]: yohimbine>phentolamine=mianserine>chlorpromazine=spiperone=prazosin>propanolol>alprenolol=pindolol

SMILES: COc1ccc(C(CN(C)C)C2(O)CCCCC2)cc1 (stereo not shown) [venlafaxine XR]
treatment outcome over time [10]: better treatment outcome

SMILES: COc1ccc(C(CN(C)C)C2(O)CCCCC2)cc1 (stereo not shown) [venlafaxine]
P-gp substrate property [2]: substrates of P-gp

SMILES: COC(=O)[C@@H]1[C@H]2C[C@H]3c4[nH]c5ccccc5c4CCN3C[C@@H]2CC[C@@H]1O [yohimbine]
rank order for antagonists [1]: yohimbine>phentolamine=mianserine>chlorpromazine=spiperone=prazosin>propanolol>alprenolol=pindolol
